In one test the target is Wee1-like protein kinase (Homo sapiens, UniProt P30291). Nature of the test: Dose Response Cell-based Assay for Inhibitors of Wee1 Degradation. [Related pubchem assays: 1410, 1321 ]. Type of test: functional.
Test [1] has as its target G2/mitotic-specific cyclin-B1 (Homo sapiens, UniProt P14635). Nature of the test: Counterscreen assay for inhibitors of Wee1 degradation: dose response cell-based assay to identify inhibitors of cyclin B degradation. [Related pubchem assays: 1410, 1321 ]. The format is functional.
The next test deals with HEK293. Nature of the test: Fluorescence-based counterscreen for potentiators or agonists of NPY-Y2: cell-based high-throughput dose response assay to identify inhibitors of cyclic nucleotide gated ion channel (CNGC) activity. In this assay, the parental HEK293 cell line transfected with a cyclic-nucleotide gated ion channel (CNGC)-based cAMP sensor is used to measure inhibition of isoproterenol-induced CNGC activity by test compound. Type of test: functional. As to conditions: Homo sapiens. On the technique in general: Counterscreens check selectivity or assay interference.

For the next test, the target named is Galanin receptor type 2 (Homo sapiens, UniProt O43603). Nature of the test: Dose Response cell-based high-throughput screening assay to identify antagonists of galanin receptor 2 (GALR2). [Related pubchem assays: 828, 866 ]. The format is functional.
Galanin receptor type 2, sequence (O43603 whole entry): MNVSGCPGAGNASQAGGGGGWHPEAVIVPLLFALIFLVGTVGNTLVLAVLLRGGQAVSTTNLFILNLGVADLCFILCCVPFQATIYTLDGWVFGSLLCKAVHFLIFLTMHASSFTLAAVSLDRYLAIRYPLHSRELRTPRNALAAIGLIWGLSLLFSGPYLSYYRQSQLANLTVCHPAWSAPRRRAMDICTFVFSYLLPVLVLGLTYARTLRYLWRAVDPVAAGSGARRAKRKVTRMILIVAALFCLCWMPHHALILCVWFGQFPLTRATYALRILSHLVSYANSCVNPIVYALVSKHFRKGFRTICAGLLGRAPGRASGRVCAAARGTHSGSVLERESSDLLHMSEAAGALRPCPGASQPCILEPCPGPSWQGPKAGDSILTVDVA
Test [2] is described as follows: activation of miR-122 Renilla sensor silencing – cell-based, Huh7 psiCHECK-miR122, Renilla luciferase, cherry-picked, dose response (AID 651956).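 Further: huh7 hepatoma cells stably carrying a psiCHECK-2 miR-122 sensor plasmid; renilla luciferase signal reporting endogenous miR-122 activity after 48 h compound exposure.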 Type of test: functional.
A short description of test [3]: HIV-1 AD8 envelope cell-cell fusion blockers – cherry-pick, dose response (AID 652062).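 Further: luciferase signal from cell-cell fusion driven by HIV-1 clade B AD8 Env; potency is for inhibitors of fusion seen as a drop in luminescence.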 Type of test: functional, cell-based.
The target of test [4] is Neuropeptide Y receptor type 2 (Homo sapiens, UniProt P49146). Nature of the test: Fluorescence-based cell-based high-throughput dose response assay for agonists of NPY-Y2. [Related pubchem assays: 1703 (Screening assay (CNGC inhibitors).), 1359 (Screening assay (NPY-Y2 potentiators or agonists).), 1304 (Screening assay (NPY-Y1 potentiators or agonists).), 1710 (Screening assay (NPY-Y2 agonists).), 1791 (Summary AID.)]. Type of test: functional.
Neuropeptide Y receptor type 2, sequence (P49146 whole entry): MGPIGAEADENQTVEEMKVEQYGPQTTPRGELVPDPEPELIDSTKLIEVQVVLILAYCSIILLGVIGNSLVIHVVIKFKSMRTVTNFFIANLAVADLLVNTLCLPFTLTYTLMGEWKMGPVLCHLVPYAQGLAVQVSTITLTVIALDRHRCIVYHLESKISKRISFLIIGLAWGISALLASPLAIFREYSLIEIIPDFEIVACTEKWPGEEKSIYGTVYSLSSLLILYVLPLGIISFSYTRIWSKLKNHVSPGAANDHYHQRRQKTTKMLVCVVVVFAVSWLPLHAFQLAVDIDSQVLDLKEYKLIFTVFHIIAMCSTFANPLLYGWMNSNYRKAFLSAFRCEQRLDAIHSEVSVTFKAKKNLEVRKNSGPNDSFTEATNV

The nature of test [5]: general mammalian cell viability loss – activator set, cherry-pick, cytotoxicity control for miR-122 modulator project, dose response (AID 720690).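 Further: HEK293T human cells scored for general mammalian cytotoxicity.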 The format is functional, cell-based.
In test [6] the target is Neuropeptide Y receptor type 1 (Homo sapiens, UniProt P25929). Nature of the test: Fluorescence-based counterscreen for agonists of NPY-Y2: cell-based high-throughput dose response assay for agonists of NPY-Y1. Type of test: functional.
Neuropeptide Y receptor type 1, sequence (P25929 whole entry): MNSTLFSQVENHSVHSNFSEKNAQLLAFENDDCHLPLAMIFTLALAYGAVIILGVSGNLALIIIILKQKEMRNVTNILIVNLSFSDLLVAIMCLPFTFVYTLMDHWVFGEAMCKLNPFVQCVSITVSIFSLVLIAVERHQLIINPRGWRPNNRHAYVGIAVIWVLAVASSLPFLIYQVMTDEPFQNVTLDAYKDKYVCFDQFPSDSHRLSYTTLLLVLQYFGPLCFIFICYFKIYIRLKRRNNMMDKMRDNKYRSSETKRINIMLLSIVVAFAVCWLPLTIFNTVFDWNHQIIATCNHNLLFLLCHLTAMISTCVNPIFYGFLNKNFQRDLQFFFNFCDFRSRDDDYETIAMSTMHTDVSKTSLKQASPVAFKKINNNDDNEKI
A further test concerns INS1. Nature of the test: INS-1E survival protection against cytokine death – cell-based, luminescence, retest, dose response (AID 449756).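 Further: cell death triggered by IL-1 beta plus TNF-alpha plus IFN-gamma mixture; protective hits raise ATP signal compared with cytokine alone wells.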 Type of test: functional. The conditions noted are these: Rattus norvegicus.
Test [7] can be described thus: general mammalian cell viability loss – inhibitor set, cherry-pick, set 2, cytotoxicity control for miR-122 modulator project, dose response (AID 720697). Type of test: functional, cell-based.
In test [8] the target is T1, COUP transcription factor 2 (Homo sapiens, UniProt P24468).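 Further: HEK293 cells transiently cotransfected with COUP-TFII expression vector and reporter; luciferase reporter luminescence driven by COUP-TFII from the pX2-168 reporter plasmid.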
T1 sequence (P24468 whole entry): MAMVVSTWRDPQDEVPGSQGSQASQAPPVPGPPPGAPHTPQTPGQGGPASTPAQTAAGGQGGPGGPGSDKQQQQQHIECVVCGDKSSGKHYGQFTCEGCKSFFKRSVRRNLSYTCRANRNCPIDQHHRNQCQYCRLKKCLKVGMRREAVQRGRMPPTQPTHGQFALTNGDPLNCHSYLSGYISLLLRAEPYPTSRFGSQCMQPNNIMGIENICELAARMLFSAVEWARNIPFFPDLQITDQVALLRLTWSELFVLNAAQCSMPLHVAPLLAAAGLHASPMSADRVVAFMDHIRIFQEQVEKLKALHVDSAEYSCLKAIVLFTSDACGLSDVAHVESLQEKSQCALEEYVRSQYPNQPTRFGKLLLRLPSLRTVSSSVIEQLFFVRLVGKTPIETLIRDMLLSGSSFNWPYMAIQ
Nature of the test: Luminescence-based cell-based high throughput dose response assay to identify inhibitors of COUP-TFII (NR2F2). The format is functional.

Test [9] in a line: off-target signal loss in HeLa-CEM21 co-culture – HeLa F-luc CTL cells, cherry-picked, counter-screen for HIV-1 Env fusion inhibitor project, dose response (AID 652040).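 Further: potency for signal decrease marking cytotoxic or nonspecific inhibition.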 The format is functional, cell-based.
A further test is described as follows: cells. Type of test: functional.
The target of test [10] is Serine/threonine-protein phosphatase (Homo sapiens, UniProt Q9BPW0). Nature of the test: Counterscreen for inhibitors of PP1: fluorescence-based biochemical high throughput dose response assay to identify inhibitors of Protein Phosphatase 5 (PP5). [Related pubchem assays: 2034 (Summary (PP5 inhibitors)), 1987 (PP5 inhibitors in singlate), 2235 (PP1 inhibitors in singlate)].
Serine/threonine-protein phosphatase, sequence (Q9BPW0 whole entry): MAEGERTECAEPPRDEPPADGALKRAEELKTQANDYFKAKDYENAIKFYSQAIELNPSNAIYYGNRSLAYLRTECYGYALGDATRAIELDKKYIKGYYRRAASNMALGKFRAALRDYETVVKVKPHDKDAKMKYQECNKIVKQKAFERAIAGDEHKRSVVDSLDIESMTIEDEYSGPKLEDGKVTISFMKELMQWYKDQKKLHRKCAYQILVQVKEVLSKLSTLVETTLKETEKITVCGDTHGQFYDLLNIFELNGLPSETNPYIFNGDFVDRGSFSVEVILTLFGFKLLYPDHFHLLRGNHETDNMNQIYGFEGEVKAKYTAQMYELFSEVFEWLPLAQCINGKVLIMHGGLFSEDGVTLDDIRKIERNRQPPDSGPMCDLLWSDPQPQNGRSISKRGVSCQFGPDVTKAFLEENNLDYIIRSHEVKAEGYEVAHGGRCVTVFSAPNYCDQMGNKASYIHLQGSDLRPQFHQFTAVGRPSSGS

For test [11], the target named is Serine/threonine-protein phosphatase PP1-alpha catalytic subunit (Homo sapiens, UniProt P62136). Nature of the test: inhibition of protein phosphatase 1 activity – biochemical, fluorescence, dose response (AID 2403).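 Further: phosphatase turnover of OMFP into fluorescent 3-O-methylfluorescein.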
Serine/threonine-protein phosphatase PP1-alpha catalytic subunit, sequence (P62136 whole entry): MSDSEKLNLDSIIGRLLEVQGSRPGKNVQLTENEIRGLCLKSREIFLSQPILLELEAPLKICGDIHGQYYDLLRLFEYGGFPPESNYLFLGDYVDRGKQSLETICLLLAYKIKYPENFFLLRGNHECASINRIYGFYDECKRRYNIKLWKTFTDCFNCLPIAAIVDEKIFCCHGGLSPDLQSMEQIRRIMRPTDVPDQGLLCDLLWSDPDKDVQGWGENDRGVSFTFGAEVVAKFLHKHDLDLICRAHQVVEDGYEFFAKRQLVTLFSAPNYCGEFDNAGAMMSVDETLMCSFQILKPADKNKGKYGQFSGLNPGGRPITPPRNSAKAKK
Test [12] in a line: Vero E6 cell cytotoxicity, dose response, cytotoxicity control for non-replicating M. tuberculosis project, secondary assay (AID 492998). Type of test: functional, VeroE6. The conditions noted are these: Vero C1008.
A short description of test [13]: THP-1 cell cytotoxicity, dose response, cytotoxicity control for non-replicating M. tuberculosis project (AID 489025). Type of test: functional.

The source of these data is ChEMBL document CHEMBL1201862, “PubChem BioAssay data set” (2004).

Broadly, the EC50 is the midpoint of the concentration-response curve. A word on the IC50: it is the concentration that gives 50% inhibition. What is called AC50 is the concentration giving half of the maximal activity seen. Usually CC50 stands for the concentration giving 50% cytotoxicity.

SMILES strings stand for the structures. Active and inactive are the calls of the source.

Wee1-like protein kinase, sequence (P30291 whole entry): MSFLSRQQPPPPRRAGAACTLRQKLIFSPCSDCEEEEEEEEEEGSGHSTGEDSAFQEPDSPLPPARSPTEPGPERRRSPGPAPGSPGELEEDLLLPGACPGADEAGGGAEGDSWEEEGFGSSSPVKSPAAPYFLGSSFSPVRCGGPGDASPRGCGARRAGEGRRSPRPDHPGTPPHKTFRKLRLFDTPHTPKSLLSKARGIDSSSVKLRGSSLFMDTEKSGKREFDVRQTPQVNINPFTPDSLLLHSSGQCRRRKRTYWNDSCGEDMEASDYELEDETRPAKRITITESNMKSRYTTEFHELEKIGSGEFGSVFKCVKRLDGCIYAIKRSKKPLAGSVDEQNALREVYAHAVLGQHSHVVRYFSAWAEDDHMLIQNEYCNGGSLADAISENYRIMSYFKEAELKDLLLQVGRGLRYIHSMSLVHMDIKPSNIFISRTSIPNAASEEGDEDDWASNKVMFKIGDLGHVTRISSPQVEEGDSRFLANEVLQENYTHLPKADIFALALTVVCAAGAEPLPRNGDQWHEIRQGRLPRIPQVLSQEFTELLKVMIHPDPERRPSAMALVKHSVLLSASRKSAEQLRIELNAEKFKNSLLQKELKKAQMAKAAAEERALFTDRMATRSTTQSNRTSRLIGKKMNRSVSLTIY
G2/mitotic-specific cyclin-B1, sequence (P14635 whole entry): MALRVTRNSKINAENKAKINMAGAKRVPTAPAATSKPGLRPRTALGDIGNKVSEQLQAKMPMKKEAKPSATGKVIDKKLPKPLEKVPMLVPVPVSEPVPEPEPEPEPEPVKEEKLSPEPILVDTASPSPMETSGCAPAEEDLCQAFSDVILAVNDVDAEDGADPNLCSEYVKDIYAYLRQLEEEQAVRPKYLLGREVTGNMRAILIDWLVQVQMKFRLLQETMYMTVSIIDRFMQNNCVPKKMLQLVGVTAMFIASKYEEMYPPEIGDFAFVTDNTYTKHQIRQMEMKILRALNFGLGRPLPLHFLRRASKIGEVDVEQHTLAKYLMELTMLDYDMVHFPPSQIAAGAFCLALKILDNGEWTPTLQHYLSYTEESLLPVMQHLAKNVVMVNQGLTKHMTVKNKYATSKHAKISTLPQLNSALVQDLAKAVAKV

Regarding `COc1ccccc1-c1ccc(SCc2ccccc2F)nn1`, the half-maximal effective concentration (EC50) (on Wee1-like protein kinase; in test [1]) was > 49.7 µM (not active) each time.

`CC(=O)c1c(C)[nH]c(C(=O)OCCCCN2C(=O)c3ccccc3C2=O)c1C`: the EC50 (in the test with HEK293; in [4]; in test [6]) was > 35.4 µM (not active) in each case. Further, the IC50 was > 42 µM (not active) against Galanin receptor type 2 and 7.55 µM (active) in [8]. Also, the AC50 in test [2] is 38.4 µM (active); in test [3] it was 6.13 µM (active); in [5], 12.5 µM (active); in the test on INS1, 6.57 µM (active); in test [7], 7.33 µM (active); in test [9] it was > 70 µM (inactive).

Regarding `COc1ccc(/C=N/Nc2cc(C)nc(-n3nc(C)cc3C)n2)cc1`, the IC50 is < 0.1 µM (active) in “cells”, > 67 µM (not active) in [10] and 5.81 µM (active) in test [11]. Also, the values for the CC50 in test [12] and in test [13] were 8.36 µM (active) and 6.97 µM (active), respectively. In the test on INS1, the AC50 is 2.42 µM (active).
